Data reported in the OPERA property sets (Mansouri et al. 2018).
In brackets after ≈: the same amount, converted by molar mass.

SMILES	logP	solubility (20 °C) [µM]	also measured
CCOCN(C(=O)CCl)c1c(C)cccc1CC	3.03	–	–
O=C(OCc1ccccc1)c1sc(Cl)nc1C(F)(F)F	–	–	solubility (25 °C): 1.55 µM (≈ 0.5 µg/mL)
CCOC(=O)Cn1c(=O)sc2cccc(Cl)c21	2.5	–	–
CCCCCOC(=O)COc1cc(N2C(=O)C3=C(CCCC3)C2=O)c(F)cc1Cl	4.99	–	solubility (25 °C): 0.446 µM (≈ 0.189 µg/mL)
CC(C)(C)c1ccc(CCOc2ncnc3ccccc23)cc1	5.51	0.718 (≈ 0.22 µg/mL)	–
C=CCN(CC=C)C(=O)C(Cl)Cl	1.84	–	–
CCCN(CCC)C(=O)SCc1ccccc1	4.65	52.5 (≈ 13.2 µg/mL)	–
CN(C(O)=NC(C)(C)c1ccccc1)c1ccccc1	–	447 (≈ 120 µg/mL)	–
Cc1ccc(N=c2sccn2C)c(C)c1	–	–	solubility (pH 9.0, 20 °C): 687 µM (≈ 150 µg/mL)
CN(C)C(O)=Nc1ccc(-n2nc(C(C)(C)C)oc2=O)c(Cl)c1	2.51	–	–
COP(=O)(OC)O/C(=C\Cl)c1ccc(Cl)cc1Cl	–	392 (≈ 130 µg/mL)	–
COc1cccc(N(C)C(=S)Oc2cccc(C(C)(C)C)c2)n1	–	0.968 (≈ 0.32 µg/mL)	–
Oc1ccccc1-c1ccccc1	–	–	solubility (25 °C): 4110 µM (≈ 700 µg/mL)
